# Earlier results in paper PMC12281572.
# Several values for one entry are separate records, joined by “and”; a condition that tells them apart may be missing. Equal entries are not always repeated.
# Assay: FTIR, 4-fluorophenol as donor (the pK_BHX database, per the paper)
# Settings: CCl4; 25 C
row,SMILES,"pK_BHX (log10 Kf of the 1:1 H-bond complex with 4-fluorophenol, by FTIR)"
1,CN(C)C(=S)c1ccc(N)cc1,1.33 log units
2,CN(C)C=NCc1cc(Cl)cc(Cl)c1,2.0 log units
3,CSC,0.12 log units
4,CCN(CC)C(=O)Cl,1.08 log units
5,Cc1cccc(C)c1[N+](=O)[O-],0.29 log units
6,CCOC(=O)c1ccccc1,0.94 log units
7,CN(C)C=Nc1ccc(F)cc1,1.8 log units
8,CN(C)C=NC(=O)N(C)C,2.92 log units
9,CC(C)(C)C(=O)C(C)(C)C,0.96 log units
10,CCN(CC)c1ccc(C(=O)c2ccc(N(CC)CC)cc2)cc1,2.33 log units
11,CC(C)(C)c1cc(C(C)(C)C)cc(C(C)(C)C)c1,-0.23 log units
12,Cc1cccc(C)c1,-0.28 log units
13,O=[N+]([O-])C=CN1CCCCC1,1.55 log units
14,CCN(CC)C(=O)SC,1.56 log units
15,CCCCNCCCC,2.11 log units
16,C1COC1,1.36 log units
17,CNC(=Nc1ccccc1)c1ccccc1,1.83 log units
18,COc1ccccc1C#N,1.06 log units
19,FC1C2CC3CC(C2)C(F)C1C3 (centres unmarked),0.48 log units
20,CC(C)Cl,-0.3 log units
21,CC(C)N=CN(C)C,2.6 log units
22,CC(C)(C)c1ccccn1,1.42 log units
23,CCCCN,2.19 log units
24,CC(=O)c1cccc([N+](=O)[O-])c1,0.18 log units
25,FC1CCCCC1,0.09 log units

row,SMILES,"pK_BHX (log10 Kf of the 1:1 H-bond complex with 4-fluorophenol, by FTIR)"
1,c1ccc(Nc2ccccc2)cc1,-0.3 log units
2,CCOC(=O)C=Cc1ccccc1,1.14 log units
3,C1COCCOCCOCCO1,1.13 log units
4,CC(=O)c1ccccc1,1.11 log units
5,Cc1cc(C)nc(C)c1,2.29 log units
6,CCCN(CCC)CCC,1.47 log units
7,[O-][n+]1ccc(-c2ccccc2)cc1,2.85 log units
8,O=c1occo1,0.69 log units
9,CS(=O)c1ccc([N+](=O)[O-])cc1 (centres unmarked),1.58 log units
10,Oc1cccc(C(F)(F)F)c1,-0.36 log units
11,CC(C)c1ccccc1,-0.34 log units
12,CCCCCCCCN,2.27 log units
13,CC(C)(C)N=Cc1ccccc1,1.29 log units
14,O=C1c2ccccc2Cc2ccccc21,1.25 log units
15,Cc1ccncc1,2.07 log units
16,OC1CCCCC1,1.14 log units
17,OCC(F)(F)F,-0.28 log units
18,c1ccc2c(c1)OCCO2,-0.23 log units
19,CN(C)C=NCc1cccc(Cl)c1,2.1 log units
20,CCN(CC)c1ccc([N+](=O)[O-])cc1,0.9 log units
21,CCC(C)(C)N=CN(C)C,2.26 log units
22,CC(=O)c1ccc(N2CCOCC2)cc1,1.61 log units
23,C#CCN=CN(C)C,2.3 log units
24,CC(=Nc1ccccc1)N(C)c1ccc(C)cc1,1.76 log units
25,CN=CN(C)C,2.7 log units

row,SMILES,"pK_BHX (log10 Kf of the 1:1 H-bond complex with 4-fluorophenol, by FTIR)"
1,C#CCN,1.56 log units
2,CCN(C)Cc1ccccc1,1.47 log units
3,C1CCC2OC2C1 (centres unmarked),1.13 log units
4,CC(C)C(=O)C(C)C,1.08 log units
5,CC(C)C(=O)N(C)C,2.26 log units
6,c1ccc(Sc2ccccc2)cc1,-0.51 log units and -0.93 log units
7,COc1ccc(C(=O)N(c2ccccc2)c2ccccc2)cc1,1.67 log units
8,c1ccc(C23CC4CC(CC(C4)C2)C3)cc1,-0.28 log units
9,CC12CCC(CC1=N[N+](=O)[O-])C2(C)C (centres unmarked),0.34 log units
10,CN(C)C=NC(=S)c1ccccc1,1.23 log units
11,CCCCCI,-0.37 log units
12,CC(=O)c1cccc(C(C)=O)c1,0.86 log units
13,CNC(C)C,2.2 log units
14,CCN(CC)C(=O)N(c1ccccc1)c1ccccc1,2.07 log units
15,CNc1ccc(C)cc1,0.43 log units
16,COc1ccc(N(C)C(=Nc2ccc(C)cc2)c2ccccc2)cc1,1.63 log units
17,CC(C)I,-0.37 log units
18,COC(OC)OC,0.55 log units
19,CC(C)(C)c1ccccc1,-0.32 log units
20,CC(=O)N1CCOCC1,2.16 log units
21,CN(C)CCCn1c2ccccc2c2ccccc21,1.88 log units
22,CCCCC(=O)CCCC,1.21 log units
23,CCOC(=O)c1cccc(C)c1,1.01 log units
24,CC(=O)N1CCCC1,2.61 log units
25,O=C1CCCCCCC1,1.45 log units

row,SMILES,"pK_BHX (log10 Kf of the 1:1 H-bond complex with 4-fluorophenol, by FTIR)"
1,CCOc1ccccc1,-0.01 log units
2,Brc1ccccc1,-0.66 log units and -0.92 log units
3,CNC(C)=O,2.3 log units
4,C1C2CC3CC1CC(C2)C3C1OC1C1C2CC3CC(C2)CC1C3 (centres unmarked),1.44 log units
5,CN(C)C,2.13 log units
6,CC(C)c1ccccn1,1.76 log units
7,CCCCCCCCSC,0.17 log units
8,Cc1ccc(C(=S)N(C)C)cc1,1.15 log units
9,CC1(C)CCCC(C)(C)N1,1.88 log units
10,COc1cccc(N=C(c2ccccc2)N(C)c2ccccc2)c1,1.41 log units
11,CC(=Nc1ccccc1)N(C)c1ccccc1,1.65 log units
12,CN(C)C(=O)c1ccc(F)cc1,2.14 log units
13,c1ncncn1,0.32 log units
14,CCCCCCl,-0.38 log units
15,NC12CC3CC(CC(C3)C1)C2,2.3 log units
16,CC(C)(C)C(=O)N(c1ccccc1)c1ccccc1,1.64 log units
17,CN1C(=O)CCC1=O,1.06 log units
18,CC(C)(C)OC(C)(C)C,0.75 log units
19,CCOC(=O)c1ccc(OC)cc1,1.13 log units
20,COc1cccc(CN)c1,1.94 log units
21,CN(C)C=NS(=O)(=O)c1ccccc1,1.51 log units
22,O=C(Cl)N(c1ccccc1)c1ccccc1,0.75 log units
23,CCCCCCCCP(=O)(CCCCCCCC)CCCCCCCC,3.59 log units
